Laboratory results reported in ChEMBL document CHEMBL1909046, “DrugMatrix in vitro pharmacology data”.

Assays:
Calcitonin receptor = target: T1, Calcitonin receptor (Homo sapiens, UniProt P30988); format: cell membranes, Membrane; conditions: t47d; note: in other assays of this panel Not Active means under 50% inhibition at 10 µM
T1 sequence (P30988 whole entry): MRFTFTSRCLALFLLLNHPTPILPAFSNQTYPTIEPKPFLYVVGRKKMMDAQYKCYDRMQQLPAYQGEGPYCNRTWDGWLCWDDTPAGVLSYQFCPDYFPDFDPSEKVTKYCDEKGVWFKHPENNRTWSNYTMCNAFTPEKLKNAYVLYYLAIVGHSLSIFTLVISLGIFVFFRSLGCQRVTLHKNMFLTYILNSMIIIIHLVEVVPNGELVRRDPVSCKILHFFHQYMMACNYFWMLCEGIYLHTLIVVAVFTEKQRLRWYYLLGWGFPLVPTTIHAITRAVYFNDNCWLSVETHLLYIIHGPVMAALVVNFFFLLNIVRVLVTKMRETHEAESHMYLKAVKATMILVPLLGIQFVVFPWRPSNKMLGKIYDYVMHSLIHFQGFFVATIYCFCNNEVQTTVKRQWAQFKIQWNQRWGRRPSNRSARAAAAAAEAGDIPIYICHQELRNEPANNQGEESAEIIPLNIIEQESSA

Estrogen receptor = target: T2, Estrogen receptor (Homo sapiens, UniProt P03372); conditions: sf9; note: in other assays of this panel Not Active means under 50% inhibition at 10 µM
T2 sequence (P03372 whole entry): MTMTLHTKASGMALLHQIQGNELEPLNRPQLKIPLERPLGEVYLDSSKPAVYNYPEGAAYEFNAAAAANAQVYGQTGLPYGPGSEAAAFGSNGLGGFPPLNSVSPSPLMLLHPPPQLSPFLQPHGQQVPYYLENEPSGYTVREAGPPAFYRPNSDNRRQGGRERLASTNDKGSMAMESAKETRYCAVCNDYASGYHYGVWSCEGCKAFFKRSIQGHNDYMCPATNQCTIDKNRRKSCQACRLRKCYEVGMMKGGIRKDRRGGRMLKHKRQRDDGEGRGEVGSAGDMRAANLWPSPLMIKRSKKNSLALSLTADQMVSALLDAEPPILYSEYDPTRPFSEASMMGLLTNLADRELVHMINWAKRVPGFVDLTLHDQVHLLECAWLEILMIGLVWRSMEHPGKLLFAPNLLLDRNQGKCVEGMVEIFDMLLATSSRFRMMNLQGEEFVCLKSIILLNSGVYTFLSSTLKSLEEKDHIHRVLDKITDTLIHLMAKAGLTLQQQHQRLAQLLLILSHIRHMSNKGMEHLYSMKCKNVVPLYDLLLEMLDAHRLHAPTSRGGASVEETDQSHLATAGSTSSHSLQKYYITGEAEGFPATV

Nitric oxide synthase 1 = Nitric oxide synthase 1 (Rattus norvegicus, UniProt P29476); format: tissue-based, Cerebellum; note: in other assays of this panel Not Active means under 50% inhibition at 10 µM
Chain of Nitric oxide synthase 1 (P29476 whole entry): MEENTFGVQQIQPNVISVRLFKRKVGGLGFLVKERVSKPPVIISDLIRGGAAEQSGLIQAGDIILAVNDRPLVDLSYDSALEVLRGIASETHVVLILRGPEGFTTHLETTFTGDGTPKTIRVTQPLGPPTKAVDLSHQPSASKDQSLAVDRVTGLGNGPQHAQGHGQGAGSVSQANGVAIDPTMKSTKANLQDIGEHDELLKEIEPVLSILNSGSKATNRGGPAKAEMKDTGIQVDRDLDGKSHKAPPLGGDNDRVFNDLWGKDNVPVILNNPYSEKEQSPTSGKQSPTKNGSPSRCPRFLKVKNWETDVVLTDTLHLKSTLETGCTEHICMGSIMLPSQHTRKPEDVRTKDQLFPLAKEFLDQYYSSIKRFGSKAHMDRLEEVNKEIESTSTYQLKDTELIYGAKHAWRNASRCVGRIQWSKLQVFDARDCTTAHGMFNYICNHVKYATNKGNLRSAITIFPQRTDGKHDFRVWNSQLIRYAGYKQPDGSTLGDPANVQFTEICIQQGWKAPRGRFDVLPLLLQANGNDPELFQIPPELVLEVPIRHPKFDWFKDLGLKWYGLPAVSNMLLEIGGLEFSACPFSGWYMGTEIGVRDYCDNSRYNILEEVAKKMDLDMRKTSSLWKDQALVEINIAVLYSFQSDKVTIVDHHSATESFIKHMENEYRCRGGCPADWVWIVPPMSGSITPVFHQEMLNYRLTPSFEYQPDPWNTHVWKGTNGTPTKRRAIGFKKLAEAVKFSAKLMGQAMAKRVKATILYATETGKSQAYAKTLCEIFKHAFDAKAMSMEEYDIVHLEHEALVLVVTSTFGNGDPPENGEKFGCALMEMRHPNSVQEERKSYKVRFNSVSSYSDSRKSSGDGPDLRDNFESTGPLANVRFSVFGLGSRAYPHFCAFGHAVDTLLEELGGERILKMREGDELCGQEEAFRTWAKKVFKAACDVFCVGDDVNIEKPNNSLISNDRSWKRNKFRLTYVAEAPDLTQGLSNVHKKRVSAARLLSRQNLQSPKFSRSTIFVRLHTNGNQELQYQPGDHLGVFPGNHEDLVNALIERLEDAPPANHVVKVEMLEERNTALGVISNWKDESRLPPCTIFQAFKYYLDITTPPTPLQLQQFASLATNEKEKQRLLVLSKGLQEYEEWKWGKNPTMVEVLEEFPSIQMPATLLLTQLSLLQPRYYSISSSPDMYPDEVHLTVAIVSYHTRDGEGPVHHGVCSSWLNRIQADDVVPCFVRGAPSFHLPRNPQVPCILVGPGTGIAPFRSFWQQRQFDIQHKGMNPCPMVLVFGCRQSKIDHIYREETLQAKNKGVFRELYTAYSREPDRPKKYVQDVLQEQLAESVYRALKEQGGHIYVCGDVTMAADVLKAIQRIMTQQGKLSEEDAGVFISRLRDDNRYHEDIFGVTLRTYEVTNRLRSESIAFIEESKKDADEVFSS

[1] = target: C-C chemokine receptor type 2 (Homo sapiens, UniProt P41597); format: cell membranes, Membrane; conditions: cho-k1; note: in other assays of this panel Not Active means under 50% inhibition at 10 µM
Chain of C-C chemokine receptor type 2 (P41597 whole entry): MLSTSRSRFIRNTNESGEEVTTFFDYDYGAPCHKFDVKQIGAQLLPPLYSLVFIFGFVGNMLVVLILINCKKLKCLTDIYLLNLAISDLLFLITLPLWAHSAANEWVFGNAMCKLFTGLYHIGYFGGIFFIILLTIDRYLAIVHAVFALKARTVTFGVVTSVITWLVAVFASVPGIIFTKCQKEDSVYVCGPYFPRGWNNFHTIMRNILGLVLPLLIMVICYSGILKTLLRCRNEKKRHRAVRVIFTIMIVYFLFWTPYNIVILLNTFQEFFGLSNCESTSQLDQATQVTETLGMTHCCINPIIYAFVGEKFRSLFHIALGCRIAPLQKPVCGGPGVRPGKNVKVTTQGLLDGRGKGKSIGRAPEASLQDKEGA

[2] = target: Vascular endothelial growth factor receptor 1 (Homo sapiens, UniProt P17948); experiment: biochemical; format: cell-based, HUVEC; note: in other assays of this panel Not Active means under 50% inhibition at 10 µM
Chain of Vascular endothelial growth factor receptor 1 (P17948 whole entry): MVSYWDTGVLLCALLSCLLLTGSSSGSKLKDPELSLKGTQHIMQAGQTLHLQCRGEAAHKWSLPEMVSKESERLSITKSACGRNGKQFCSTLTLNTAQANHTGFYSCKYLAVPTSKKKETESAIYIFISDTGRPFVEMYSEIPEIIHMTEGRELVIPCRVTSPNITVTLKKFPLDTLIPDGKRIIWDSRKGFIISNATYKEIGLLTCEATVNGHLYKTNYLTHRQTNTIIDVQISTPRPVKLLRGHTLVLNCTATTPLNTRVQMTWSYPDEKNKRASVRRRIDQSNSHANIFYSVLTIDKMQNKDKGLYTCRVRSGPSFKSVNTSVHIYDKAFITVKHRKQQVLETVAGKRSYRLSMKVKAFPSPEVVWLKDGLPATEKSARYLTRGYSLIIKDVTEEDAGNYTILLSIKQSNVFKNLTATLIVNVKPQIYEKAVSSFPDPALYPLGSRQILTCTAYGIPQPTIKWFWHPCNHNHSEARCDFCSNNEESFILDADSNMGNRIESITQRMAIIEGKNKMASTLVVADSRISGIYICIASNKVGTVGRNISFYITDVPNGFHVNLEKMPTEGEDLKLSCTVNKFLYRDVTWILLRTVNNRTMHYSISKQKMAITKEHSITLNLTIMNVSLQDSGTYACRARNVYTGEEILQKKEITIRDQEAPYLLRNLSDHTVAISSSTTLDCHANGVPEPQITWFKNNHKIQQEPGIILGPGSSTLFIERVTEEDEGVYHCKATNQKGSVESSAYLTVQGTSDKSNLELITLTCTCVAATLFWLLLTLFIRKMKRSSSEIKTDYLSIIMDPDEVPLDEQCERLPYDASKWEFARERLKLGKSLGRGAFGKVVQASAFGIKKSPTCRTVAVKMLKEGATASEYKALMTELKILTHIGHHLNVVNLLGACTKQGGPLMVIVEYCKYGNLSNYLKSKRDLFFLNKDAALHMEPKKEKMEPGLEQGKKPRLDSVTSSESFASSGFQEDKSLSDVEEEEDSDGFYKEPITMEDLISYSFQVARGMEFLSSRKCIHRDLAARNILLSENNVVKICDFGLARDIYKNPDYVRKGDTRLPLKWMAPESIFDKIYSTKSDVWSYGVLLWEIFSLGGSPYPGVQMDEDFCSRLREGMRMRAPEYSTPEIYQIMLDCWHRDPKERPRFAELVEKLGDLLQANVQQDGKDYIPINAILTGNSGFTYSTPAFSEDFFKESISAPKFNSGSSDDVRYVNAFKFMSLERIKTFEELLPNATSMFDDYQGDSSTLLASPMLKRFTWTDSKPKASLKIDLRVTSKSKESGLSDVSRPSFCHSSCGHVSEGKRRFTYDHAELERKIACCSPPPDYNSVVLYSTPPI

[3] = DRUGMATRIX: Glutamate, NMDA, Phencyclidine radioligand binding (ligand: [3H] TCP); format: cell membranes, Rattus norvegicus, Wistar, Cerebral cortex, Membrane; conditions: Not Active = under 50% inhibition at 10 µM
Carbonic anhydrase 2 = Carbonic anhydrase 2 (Homo sapiens, UniProt P00918); experiment: DRUGMATRIX: Carbonic Anhydrase II enzyme inhibition (substrate: 4-Nitrophenyl acetate (4-NPA)); format: tissue-based; conditions: erythrocyte; Not Active = under 50% inhibition at 10 µM
Interstitial collagenase = target: T3, Interstitial collagenase (Homo sapiens, UniProt P03956); experiment: biochemical; format: tissue-based, Rheumatoid synovial fibroblasts
T3 sequence (P03956 whole entry): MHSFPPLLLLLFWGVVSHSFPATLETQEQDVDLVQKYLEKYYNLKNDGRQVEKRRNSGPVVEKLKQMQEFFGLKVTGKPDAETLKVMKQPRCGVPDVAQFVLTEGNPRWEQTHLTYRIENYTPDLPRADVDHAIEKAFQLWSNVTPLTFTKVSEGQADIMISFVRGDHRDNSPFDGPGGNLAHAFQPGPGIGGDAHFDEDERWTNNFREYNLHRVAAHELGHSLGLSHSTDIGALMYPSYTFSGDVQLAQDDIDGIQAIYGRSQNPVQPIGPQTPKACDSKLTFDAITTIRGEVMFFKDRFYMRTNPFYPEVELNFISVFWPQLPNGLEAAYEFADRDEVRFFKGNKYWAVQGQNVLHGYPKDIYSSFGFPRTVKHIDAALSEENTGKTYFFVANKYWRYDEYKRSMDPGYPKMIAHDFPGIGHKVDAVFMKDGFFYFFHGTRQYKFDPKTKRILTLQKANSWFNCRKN

SMILES | IC50 (Calcitonin receptor) | IC50 (Estrogen receptor) | IC50 (Nitric oxide synthase 1) | IC50 [1] | IC50 ([2]; huvec) | IC50 [3] | Ki [3] | IC50 (Carbonic anhydrase 2) | IC50 (Interstitial collagenase) | IC50 ([2]; read-out: IC50) [nM] | Ki ([2]; read-out: Ki) [nM]
CC[C@H](C)[C@H]1O[C@]2(C=C[C@@H]1C)C[C@@H]1C[C@@H](C/C=C(\C)[C@@H](O[C@H]3C[C@H](OC)[C@@H](O[C@H]4C[C@H](OC)[C@@H](O)[C@H](C)O4)[C@H](C)O3)[C@@H](C)/C=C/C=C3\CO[C@@H]4[C@H](O)C(C)=C[C@@H](C(=O)O1)[C@]34O)O2.CO[C@H]1C[C@H](O[C@H]2[C@H](C)O[C@@H](O[C@@H]3/C(C)=C/C[C@@H]4C[C@@H](C[C@]5(C=C[C@H](C)[C@@H](C(C)C)O5)O4)OC(=O)[C@@H]4C=C(C)[C@@H](O)[C@H]5OC/C(=C\C=C\[C@@H]3C)[C@]54O)C[C@@H]2OC)O[C@@H](C)[C@@H]1O [ABAMECTIN] | Not Active | Not Active | Not Active | Not Active | Not Active | Not Active | Not Active | Not Active | Not Active | – | –
Cc1nnc2n1-c1ccc(Cl)cc1C(c1ccccc1)=NC2 [ALPRAZOLAM] | Not Active | Not Active | Not Active | Not Active | Not Active | Not Active | Not Active | Not Active | Not Active | – | –
COc1ccc(C2C(=O)c3ccccc3C2=O)cc1 [ANISINDIONE] | Not Active | Not Active | Not Active | Not Active | Not Active | Not Active | Not Active | Not Active | Not Active | – | –
CC(C(=O)O)c1ccc2oc(-c3ccc(Cl)cc3)nc2c1 (configuration not stated) [BENOXAPROFEN] | Not Active | Not Active | Not Active | Not Active | Not Active | Not Active | Not Active | Not Active | Not Active | – | –
COc1ccc2cc3[n+](cc2c1OC)CCc1cc2c(cc1-3)OCO2.[Cl-] [BERBERINE CHLORIDE] | Not Active | Not Active | Not Active | Not Active | Not Active | Not Active | Not Active | Not Active | Not Active | – | –
O=C(O)CCNC(=O)c1ccccc1 [BETAMIPRON] | Not Active | Not Active | Not Active | Not Active | Not Active | Not Active | Not Active | Not Active | Not Active | – | –
CC(=O)Oc1ccc(C(c2ccc(OC(C)=O)cc2)c2ccccn2)cc1 [BISACODYL] | Not Active | Not Active | Not Active | Not Active | Not Active | Not Active | Not Active | Not Active | Not Active | – | –
Cc1cc2c(OCC(CNC(C)(C)C)OC(=O)c3ccccc3)cccc2[nH]1 (configuration not stated) [BOPINDOLOL] | Not Active | Not Active | Not Active | Not Active | Not Active | Not Active | Not Active | Not Active | Not Active | – | –
CN/C(=N\CCSCc1nc[nH]c1C)NC#N [CIMETIDINE] | Not Active | Not Active | Not Active | Not Active | Not Active | Not Active | Not Active | Not Active | Not Active | – | –
COc1cc(N)c(Cl)cc1C(=O)NC1CCN(CCCOc2ccc(F)cc2)CC1OC (configuration not stated) [CISAPRIDE] | Not Active | Not Active | Not Active | Not Active | Not Active | Not Active | Not Active | Not Active | Not Active | – | –
CCC(=O)O[C@]1(C(=O)CCl)[C@@H](C)C[C@H]2[C@@H]3CCC4=CC(=O)C=C[C@]4(C)[C@@]3(F)[C@@H](O)C[C@@]21C [CLOBETASOL PROPIONATE] | Not Active | Not Active | Not Active | Not Active | Not Active | Not Active | Not Active | Not Active | Not Active | – | –
O=C1CN=C(c2ccccc2Cl)c2cc([N+](=O)[O-])ccc2N1 [CLONAZEPAM] | Not Active | Not Active | Not Active | Not Active | Not Active | Not Active | Not Active | Not Active | Not Active | – | –
Nc1ccn([C@@H]2O[C@H](CO)[C@@H](O)[C@@H]2O)c(=O)n1 [CYTARABINE] | Not Active | Not Active | Not Active | Not Active | Not Active | Not Active | Not Active | Not Active | Not Active | – | –
C[C@@H]1CC[C@@]2(OC1)O[C@H]1[C@@H](O)[C@H]3[C@@H]4CC[C@H]5C[C@@H](O[C@@H]6O[C@H](CO)[C@H](O[C@@H]7O[C@H](CO)C(O)[C@H](O[C@@H]8OC[C@@H](O)[C@H](O)[C@H]8O)[C@H]7O[C@@H]7O[C@H](CO)[C@H](O)[C@H](O[C@@H]8O[C@H](CO)[C@@H](O)[C@H](O)[C@H]8O)[C@H]7O)[C@H](O)[C@H]6O)[C@H](O)C[C@]5(C)[C@H]4CC[C@]3(C)[C@H]1[C@@H]2C (some centres not stated) [DIGITONIN] | Not Active | Not Active | Not Active | Not Active | – | Not Active | Not Active | Not Active | Not Active | 3860 | 1000
OC(CCCN1CCCCC1)(c1ccccc1)c1ccccc1 [DIPHENIDOL] | Not Active | Not Active | Not Active | Not Active | Not Active | Not Active | Not Active | Not Active | Not Active | – | –
Cn1c(=O)c2c(ncn2CC(O)CO)n(C)c1=O (configuration not stated) [DYPHYLLINE] | Not Active | Not Active | Not Active | Not Active | Not Active | Not Active | Not Active | Not Active | Not Active | – | –
CCC1(C)CC(=O)NC1=O (configuration not stated) [ETHOSUXIMIDE] | Not Active | Not Active | Not Active | Not Active | Not Active | Not Active | Not Active | Not Active | Not Active | – | –
C#C[C@]1(OC(C)=O)CC[C@H]2[C@@H]3CCC4=C[C@@H](OC(C)=O)CC[C@@H]4[C@H]3CC[C@@]21C [ETHYNODIOL DIACETATE] | Not Active | Not Active | Not Active | Not Active | Not Active | Not Active | Not Active | Not Active | Not Active | – | –
C=CCc1ccc(O)c(OC)c1 [EUGENOL] | Not Active | Not Active | Not Active | Not Active | Not Active | Not Active | Not Active | Not Active | Not Active | – | –
